# Results published in the supplement of paper PMC10307832.
# Experiments:
# Experiment in all cases: relative viability (nuclei count vs DMSO), 5 days (fraction); higher = more cells survive
# Olaparib + Navitoclax = compound: O=C(c1cc(Cc2n[nH]c(=O)c3ccccc23)ccc1F)N1CCN(C(=O)C2CC2)CC1 [Olaparib] + CC1(C)CCC(c2ccc(Cl)cc2)=C(CN2CCN(c3ccc(C(=O)NS(=O)(=O)c4ccc(N[C@H](CCN5CCOCC5)CSc5ccccc5)c(S(=O)(=O)C(F)(F)F)c4)cc3)CC2)C1 [Navitoclax] (partner 0.5 µM)
# Method in brief: (§1)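 Values are medians from duplicate plates. Each reflects relative viability, defined as the nuclei count of treated wells over that of vehicle wells. Lung cancer cell lines in 1536-well plates were pin-tool dosed one day after seeding with one drug alone or with a fixed anchor-drug dose plus five library-drug doses (not always all listed) in √10 steps, then fixed, stained and imaged at 4× after 5 days.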
# Crizotinib + Tozasertib = compound: C[C@@H](Oc1cc(-c2cnn(C3CCNCC3)c2)cnc1N)c1c(Cl)ccc(F)c1Cl [Crizotinib] + Cc1cc(Nc2cc(N3CCN(C)CC3)nc(Sc3ccc(NC(=O)C4CC4)cc3)n2)n[nH]1 [Tozasertib] (partner 0.1 µM)
# Method in brief: as §1
# Crizotinib + Olaparib = compound: C[C@@H](Oc1cc(-c2cnn(C3CCNCC3)c2)cnc1N)c1c(Cl)ccc(F)c1Cl [Crizotinib] + O=C(c1cc(Cc2n[nH]c(=O)c3ccccc23)ccc1F)N1CCN(C(=O)C2CC2)CC1 [Olaparib] (partner 8 µM)
# Method in brief: as §1
# Crizotinib + Palbociclib = compound: C[C@@H](Oc1cc(-c2cnn(C3CCNCC3)c2)cnc1N)c1c(Cl)ccc(F)c1Cl [Crizotinib] + CC(=O)c1c(C)c2cnc(Nc3ccc(N4CCNCC4)cn3)nc2n(C2CCCC2)c1=O [Palbociclib] (partner 0.5 µM)
# Method in brief: as §1
Cell Line,relative viability (Olaparib + Navitoclax; first compound 0.08 µM),relative viability (Olaparib + Navitoclax; first compound 0.253 µM),relative viability (Olaparib + Navitoclax; first compound 2.53 µM),relative viability (Olaparib + Navitoclax; first compound 8 µM),relative viability (Crizotinib + Tozasertib; first compound 0.01 µM),relative viability (Crizotinib + Tozasertib; first compound 0.03162 µM),relative viability (Crizotinib + Tozasertib; first compound 0.1 µM),relative viability (Crizotinib + Tozasertib; first compound 0.3162 µM),relative viability (Crizotinib + Tozasertib; first compound 1 µM),relative viability (Crizotinib + Olaparib; first compound 0.01 µM),relative viability (Crizotinib + Olaparib; first compound 0.03162 µM),relative viability (Crizotinib + Olaparib; first compound 0.1 µM),relative viability (Crizotinib + Olaparib; first compound 0.3162 µM),relative viability (Crizotinib + Olaparib; first compound 1 µM),relative viability (Crizotinib + Palbociclib; first compound 0.01 µM),relative viability (Crizotinib + Palbociclib; first compound 0.03162 µM),relative viability (Crizotinib + Palbociclib; first compound 0.1 µM),relative viability (Crizotinib + Palbociclib; first compound 0.3162 µM),relative viability (Crizotinib + Palbociclib; first compound 1 µM)
SK-LU-1,0.941,0.785,0.749,0.409,0.287,0.373,0.328,0.334,0.27,0.504,0.438,0.451,0.477,0.405,0.391,0.359,0.38,0.361,0.436
SK-MES-1,1.15,1.07,1.13,0.825,0.844,0.905,0.87,0.808,0.845,0.683,0.733,0.761,0.762,0.637,0.295,0.318,0.341,0.312,0.302
SW 1573,0.958,0.795,0.858,0.671,0.178,0.216,0.188,0.198,0.162,0.44,0.459,0.542,0.483,0.383,0.373,0.368,0.39,0.417,0.411
UMC-11,0.398,0.321,0.259,0.207,0.185,0.184,0.192,–,0.208,0.35,0.306,0.375,0.494,0.317,0.329,0.336,0.307,–,0.398
